Article PMC7284870, “Antimicrobial Peptides from Rat-Tailed Maggots of the Drone Fly Eristalis tenax Show Potent Activity against Multidrug-Resistant Gram-Negative Bacteria” (Microorganisms, 2020)
In brackets after ≈: the same amount, converted by molar mass. Like-named read-outs stand apart in the source and are kept apart here. No end group written: not given here.

Columns and labels:
[1] = system: Canida albicans FH2173; assay type: cell-based, Candida albicans; conditions: CAMB, 24 h, 37 °C, n = 4
Outline: (§1)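 Broth microdilution in cation-adjusted Mueller–Hinton broth at 37 °C, with 18 h cultures diluted to 5 × 10^5 cells/mL and final peptide concentrations of 1024–0.03125 µg/mL. Growth was scored visually and by OD600. MIC is the lowest concentration with no growth; medium was optionally supplemented with 150 mM NaCl or 1.25 mM CaCl2.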

[2] = system: Enterococcus faecium DSM 17050; assay type: cell-based; conditions: CAMB, 18 h, 37 °C, n = 4
Outline: as §1

[3] = system: Listeria monocytogenes DSM 20600; assay type: cell-based; conditions: CAMB, 18 h, 37 °C, n = 4
Outline: as §1

[4] = system: Mycobacterium smegmatis ATCC 607; assay type: cell-based; conditions: BHI, 48 h, 37 °C, BacTiter-Glo, n = 4
[5] = system: Proteus mirabilis DSM 4479; assay type: cell-based; conditions: CAMB, 18 h, 37 °C, n = 4
Outline: as §1

[6] = system: Staphylococcus epidermidis ATCC 35984; assay type: cell-based; conditions: CAMB, 18 h, 37 °C, n = 4
Outline: as §1

[7] = system: human erythrocytes; experiment: Hemolysis of human erythrocytes; conditions: hRBC in PBS, 3 h, 37 °C, A540; highest tested 1024 µg/mL
Experimental: Fresh citrated stabilized human whole blood was centrifuged at 500× g for 5 min. and the cell sediment was washed three times with phosphate buffered saline (PBS) before resuspending in PBS (50-fold the initial sample volume) to generate the human red blood cell (hRBC) suspension. The peptides were dissolved in sterile water at a concentration of 10.24 mg/mL and a dilution series was prepared in a 384-well microtiter plate, as above, to achieve the concentration range 10,240–0.3125 µg/mL in a volume of 50 µL. Triton X-100 (positive control) was diluted in sterile water to cover the concentration range 20–0.02%. We transferred 5-µL aliquots to new 384-well microtiter plates using the CyBio-Well 384-channel automated pipettor and added 45 µL of the hRBC suspension while using the Viafill reagent dispenser to achieve the final peptide concentration range 1024–0.031 µg/mL. After incubation at 37 °C. for 3 h, the plate was centrifuged and 20 μL of the supernatant from each well was transferred to a new microtiter plate. The quantity of released hemoglobin was determined by measuring the absorbance at 540 nm using a Lumistar plate reader (BMG Labtech, Ortenberg, Germany). The percent hemolysis was calculated by comparing to a control without peptide (no hemolysis) and a control with 2% Triton X-100 (100% hemolysis).

[8] = system: HepG2 cells; experiment: Cytotoxicity (ATP quantification and neutral red uptake)
Experimental: The cytotoxicity of the AMPs was determined in 96-well microtiter plates with an assay volume of 200 µL. The peptides were dissolved in PBS and a 1:2 dilution series in DMEM-F12 medium (supplemented with 1% nonessential amino acids, 1% sodium pyruvate, and 5% heat-inactivated fetal calf serum) was prepared in nine steps to produce test concentrations of 400, 200, 100, […], 12.5, 6.25, 3.13, and 1.56 μM (1655–6.46 µg/mL for EtCec1-a, 1713–6.68 µg/mL for EtCec2-a, 1622–6.33 µg/mL for EtCec3-a, 2661–10.38 µg/mL for EtDip). Stocks of the mycoplasma-free HepG2 cell line HB-8065 (ATCC) stored in liquid nitrogen were seeded at a density of 20,000 cells/well into 96-well microplates in 100 μL DMEM-F12 supplemented as above. After incubation overnight at 37 ± 1 °C in a 5% CO2 atmosphere, 100 μL of the test solution was added per well in six replicates. Ketoconazole was used as a positive control and PBS as a negative control. The plates were incubated for 24 h, as above, and the cell viability was assessed using the luminescent CellTiter-Glo ATP monitoring kit (Promega) to determine the quantity of ATP.
HepG2 cells and peptides were prepared as described above, and cell viability was assessed based on the ability of lysosomes to store the dye neutral red (Sigma–Aldrich, ST. Louis, MO, USA). The cells were incubated for 3 h with a neutral red solution, washed twice, and lysed. After complete lysis, the quantity of neutral red was determined by measuring the absorption at 540 nm while using a Tecan Genios Pro plate reader.

[9] = system: Gram-negative clinical isolates; assay type: cell-based
Outline: as §1

[10] = system: P. aeruginosa clinical isolates (2); assay type: cell-based, Pseudomonas aeruginosa
Experimental: (§2) The strains that were used in this study (Table 2 and Table S1) were cultivated at 37 °C in cation-adjusted Mueller–Hinton broth (CAMB) in Erlenmeyer flasks, or on the same medium with agar in Petri dishes. Exceptionally, Mycobacterium smegmatis was cultivated at 37 °C in brain heart infusion (BHI) medium that was supplemented with 1% Tween-80 in Erlenmeyer flasks, or on the same medium lacking detergent but with agar in Petri dishes. Strains listed with Robert Koch Institute (RKI) strain numbers are clinical isolates from the RKI strain collection originating from hospitalized patients in Germany. The remaining strains originated from the Sanofi strain collection and they were originally purchased from the American Type Culture Collection or the German Collection of Microorganisms and Cell Cultures. Meropenem/colistin-resistant strains were maintained, as described above, with the appropriate antibiotic added at levels below the minimal inhibitory concentration (MIC).
The MIC values were determined in 384-well microtiter plates with an assay volume of 20 µL. Immediately before each assay, the cultures of test organisms (bacteria grown for 18 h, Candida albicans and M. smegmatis grown for 48 h) were diluted with the appropriate medium to a density of 1 × 10^6 cells/mL (C. albicans), 1 × 10^5 cells/mL (M. smegmatis) or 5 × 10^5 cells per mL (other species). […] We transferred 2-µL aliquots from this dilution series to new 384-well microtiter plates while using a CyBio-Well 384-channel automated pipettor (Analytic Jena, Jena, Germany) and added 18 µL of the diluted suspension of each test species using a Viafill reagent dispenser (Integra), thus reducing the final peptide concentration 10-fold to the range 1024–0.03125 µg/mL. […] The growth of M. smegmatis was measured using the BacTiter-Glo luminescence test system (Promega, Madison, WI, USA). The growth of the other species was determined by visual inspection of the microtiter plate and turbidimetry based on the optical density at 600 nm (OD600). […]

[11] = system: E. coli RKI 6A-6; experiment: microbe, parasite or virus in culture; assay type: cell-based, Escherichia coli
Outline: as §1

[12] = system: K. pneumoniae RKI 268/15; assay type: cell-based, Klebsiella pneumoniae
Experimental: as §2
(§3) The MIC values were determined in 384-well microtiter plates with an assay volume of 20 µL. Immediately before each assay, the cultures of test organisms (bacteria grown for 18 h, Candida albicans and M. smegmatis grown for 48 h) were diluted with the appropriate medium to a density of 1 × 10^6 cells/mL (C. albicans), 1 × 10^5 cells/mL (M. smegmatis) or 5 × 10^5 cells per mL (other species). […] We transferred 2-µL aliquots from this dilution series to new 384-well microtiter plates while using a CyBio-Well 384-channel automated pipettor (Analytic Jena, Jena, Germany) and added 18 µL of the diluted suspension of each test species using a Viafill reagent dispenser (Integra), thus reducing the final peptide concentration 10-fold to the range 1024–0.03125 µg/mL. […] The growth of M. smegmatis was measured using the BacTiter-Glo luminescence test system (Promega, Madison, WI, USA). The growth of the other species was determined by visual inspection of the microtiter plate and turbidimetry based on the optical density at 600 nm (OD600). The MIC was defined as the peptide concentration at which no bacterial growth was observed. We supplemented the test medium with either 150 mM NaCl or 1.25 mM CaCl2 to represent monovalent and divalent cations to simulate physiological conditions.

[13] = system: K. pneumoniae RKI 68/16; assay type: cell-based, Klebsiella pneumoniae
Experimental: as §2, §3

[14] = system: Stenotrophomonas maltophilia RKI 136/09; assay type: cell-based
Outline: as §1

[15] = HepG2, 24 h, cell viability >80%

Compound	MIC [1] [µg/mL]	MIC [2] [µg/mL]	MIC [3] [µg/mL]	MIC [4] [µg/mL]	MIC [5] [µg/mL]	MIC [6] [µg/mL]	minimal hemolytic concentration [7] [µg/mL]	NOEC [8, 15] [µg/mL]	other results
QFNMQGGGSPRQGFDVNANARFPIWQSQNARNSVHGTASYAQHLGGPYGNSRPNFGGGLQFT [EtDip]	>1024	>1024	>1024	64	>1024	>1024	> 1024	> 1330	
GFLKKIGKKLEGAVQRTRDATIQTIAVAQAAANVAATAKQ-NH2 [EtCec1-NH2]									MIC ([9]; 18 h): ≥ 64 µg/mL; MIC ([10]; clinical isolates (2, 18 h)): 128 µg/mL; NOEC [8]: greater than 1655 µg/mL
C[C@@H](O)[C@H]1C(=O)N2C(C(=O)O)=C(S[C@@H]3CN[C@H](C(=O)N(C)C)C3)[C@H](C)[C@H]12 [MEM, meropenem]									MIC ([11]; Escherichia coli, RKI6A6, Table S1, RKI 6A-6, read-out: MIC): ≤ 0.5 µg/mL; MIC ([12]; Table S1, RKI 268/15): 16 µg/mL (≈ 41.7 µM); MIC ([13]; Table S1, RKI 68/16): ≤ 0.5 µg/mL; MIC ([14]; Table S1, RKI 136/09): > 64 µg/mL; MIC ([10]; Table S1, RKI 93/12): 16 µg/mL (≈ 41.7 µM); MIC ([10]; Table S1, RKI 628/16): 8 µg/mL (≈ 20.9 µM)
GWLRDFGKRIERTGQNIRDATIQTIGIAQEAANVAATLK-NH2 [EtCec2-NH2]	>1024	>1024	>1024	>1024	>1024	>1024	512	535	MIC ([11]; Table 4, CAMB, n=3): 64 µg/mL; MIC ([12]; Table 4, CAMB, n=3): 64 µg/mL; MIC ([13]; Table 4, CAMB, n=3): 128 µg/mL; MIC ([9]; isolates of M. morganii and S. fonticola): > 128 µg/mL; MIC ([14]; CAMB adjusted to 150 mM NaCl, n=3): 512 µg/mL; MIC ([14]; Table 4, CAMB, n=3): 256 µg/mL
